{"source": "patent US20260250629A1", "about": "“STEM CELLS BASED THREE-DIMENSIONAL EMBRYO MODEL” (CAMBRIDGE ENTERPRISE LIMITED, priority 2023, published 2026)", "format_in_all_cases": "cell-based, human", "key": {"niSTEMBRYOs [1]": {"test_system": "niSTEMBRYOs", "assay": "Red hemogenic zones in niSTEMBRYOs"}, "hEOs [2]": {"test_system": "hEOs", "assay": "Scaled static culture of hEOs in Aggrewell 400 plates", "protocol": "(§1) 24 well Aggrewell™ 400 plates (StemCell Technologies 34411) were pre-treated with 500 μl/well anti-adherence medium and centrifuged at 1300×g for 5 mins. After aspirating the medium, the wells were rinsed with 2 ml warm basal medium. Then, the medium was replaced by 1 ml warm organisation medium (OM). The plate was incubated at 37° C. at 5% CO2 until the cells were ready for seeding. OM comprised of Essential 6 (E6) medium (Life Technologies, A1516401) supplemented with 0.25 μM CH and ROCKi (10 μM). Pre-induced cells were dissociated using 0.25% Trypsin-EDTA, and 480,000 cells were seeded into each well of an Aggrewell™ 400 Plate at the rate of 400 cells/microwell and were centrifuged at 300×g for 3 mins. The final volume of medium in each well was 2 ml. Cells were cultured in Aggrewell plates at 37° C. at 5% CO2 for 4 days. The OM (without ROCKi) was replaced every day. On day 5, hEOs were manually picked and transferred to bottles for rotary culture in a bioreactor. From Day 5, hEOs were cultured in OM supplemented with 1 μM SB431542 at hypoxic conditions (5% O2, 5% CO2 and without ROCKi). The hEOs were collected at different time points for further analysis."}, "niSTEMBRYOs [3]": {"test_system": "niSTEMBRYOs", "assay": "Contracting cardiomyocytes in niSTEMBRYOs"}, "hPGCLCs": {"test_system": "hPGCLCs", "assay": "hPGCLC specification in hEOs, NANOS3-tdTomato reporter", "protocol": "(§2) Inventors used W15-NANOS3-tdTomato and RUES2-GLR hES cell lines in this study. All hES cells were cultured in Essential 8™ (E8) medium (Life Technologies, A1517001) on freshly prepared Vitronectin (Fisher Scientific, A31804) coated 6-well plates in humidified chambers at 37° C. and 5% CO2. hES cells were passaged every 3-4 days (once they reached ~70% confluency) using 0.5 mM EDTA (ThermoFisher Scientific, AM9260G) in homemade phosphate buffer saline (1×PBS). The transient state of cells was induced, as described previously, with slight modifications^19. In brief, hES cell colonies (70% confluent) were dissociated into single cells using 0.25% Trypsin-EDTA (Life Technologies, 25200072), seeded (600,000 cells/well) into freshly prepared Vitronectin-coated 6-well plates (~30 mins). The cells were cultured for 24 h in the presence of Advanced RPMI 1640 (Life Technologies, 61870-036) supplemented with B27 supplement (1%) (ThermoFisher Scientific, 17504044), 0.1 mM NEAA, 100 U/ml Penicillin, 0.1 mg/ml Streptomycin, 2 mM L-glutamine, Activin A (1 μg/ml) (In-house produced by Biochemistry Department, University of Cambridge), Chiron (3 μM) (CHIR99021, TOCRIS 4423/10) and Rho-associated, coiled-coil containing protein kinase (ROCK) inhibitor (Rocki: 10 μM); Y27632) (hereafter called induction medium, IM).\nTransient cells induced in IM for 24 h were dissociated into single cells using 0.25% Trypsin-EDTA and seeded (400 cells/well) into Corning Clear Ultra-low attachment 96-well plates (Fisher Scientific 10023683). […]\nhEOs cultured on ultra-low attachment 96-well plates were collected, washed in 1×PBS and fixed in 4% PFA for 3-4 hours at room temperature or 1% PFA overnight at 4° C. hEOs were embedded in OCT mounting medium (VWR-361603E) and incubated in dry ice for 30 min before sectioning the frozen samples. An antigen retrieval procedure was performed to remove the fluorescence reporter from W15-NANOS3-tdTomato hES cell line, where required. […]"}, "hEOs [4]": {"test_system": "hEOs", "assay": "Self-organization of hES cells into 3D hEOs, static 96-well culture", "protocol": "as §2, with “IM). […]” for “IM).”"}, "niSTEMBRYOs [5]": {"test_system": "niSTEMBRYOs", "assay": "niSTEMBRYO static and kinetic culture: growth and morphology", "conditions": "kinetic culture with SB"}, "hEOs [6]": {"test_system": "hEOs", "assay": "Frequency of hEOs with red inclusions (haematopoiesis)", "protocol": "as §1, with “On day 5, hEOs were manually picked and transferred to bottles for rotary culture in a bioreactor. From Day 5, hEOs were cultured in OM supplemented with 1 μM SB431542 at hypoxic conditions (5% O2, 5% CO2 and without ROCKi).” left out"}, "hEOs [7]": {"test_system": "hEOs", "assay": "Frequency of beating hEOs (periodic contractions)", "protocol": "24 well Aggrewell™ 400 plates (StemCell Technologies 34411) were pre-treated with 500 μl/well anti-adherence medium and centrifuged at 1300×g for 5 mins. After aspirating the medium, the wells were rinsed with 2 ml warm basal medium. Then, the medium was replaced by 1 ml warm organisation medium (OM). The plate was incubated at 37° C. at 5% CO2 until the cells were ready for seeding. OM comprised of Essential 6 (E6) medium (Life Technologies, A1516401) supplemented with 0.25 μM CH and ROCKi (10 μM). Pre-induced cells were dissociated using 0.25% Trypsin-EDTA, and 480,000 cells were seeded into each well of an Aggrewell™ 400 Plate at the rate of 400 cells/microwell and were centrifuged at 300×g for 3 mins. The final volume of medium in each well was 2 ml. Cells were cultured in Aggrewell plates at 37° C. at 5% CO2 for 4 days. The OM (without ROCKi) was replaced every day. On day 5, hEOs were manually picked and transferred to bottles for rotary culture in a bioreactor. From Day 5, hEOs were cultured in OM supplemented with 1 μM SB431542 at hypoxic conditions (5% O2, 5% CO2 and without ROCKi). The hEOs were collected at different time points for further analysis. Medium containing human cord serum (HCS) (also known as ex-utero culture medium, EUCM) was used as described earlier^64. In brief, 25% human cord serum was mixed with 25% DMEM (Gibco 11880) (low glucose, no phenol red, no glutamine, no HEPES) and 50% rat serum. Glutamine and Penicillin-Streptomycin (50 units/ml penicillin) were added to the medium supplemented with 4 mg/ml glucose and HEPES (GIBCO 15630056, 11 mM) and 1 mM Sodium Pyruvate. Human cord serum was provided by the Cambridge Blood and Stem Cell Biobank, which is supported by the Cambridge NIHR Biomedical Research Centre, Wellcome Trust-MRC Stem Cell Institute, UK. Rat serum was heat-inactivated for 30 min at 56° C. and filtered through 0.22 μm PVDF filter, whereas human serum was heat inactivated at 55° C. for 45 minutes and sterilized through filtration by 0.22 μm filters. […]"}, "niSTEMBRYOs [8]": {"test_system": "niSTEMBRYOs", "assay": "Lineage marker expression and hindgut formation in niSTEMBRYOs"}, "hEOs [9]": {"test_system": "hEOs", "assay": "Kinetic rotary culture of hEOs: growth and morphology", "protocol": "as §1, with “analysis. Medium containing human cord serum (HCS) (also known as ex-utero culture medium, EUCM) was used as described earlier^64. […]” for “analysis.”"}}}
{"smiles": "Cc1c[nH]c(-c2cnc(NCCNc3ccc(C#N)cn3)nc2-c2ccc(Cl)cc2Cl)n1", "note": "[CH, CHIR99021]", "values": [{"measurement": "appearance of red hemogenic zones", "setting": "niSTEMBRYOs [1]; aggregates cultured in the presence of CH or HCS alone", "value": "did not appear"}, {"measurement": "elongation of the aggregates", "setting": "hEOs [2]; four days in the presence of CH, by day 4, 1845/3100, N=4 experiments", "value": "~ 60%"}, {"measurement": "periodic contractions", "setting": "niSTEMBRYOs [3]; niSTEMBRYOs cultured with HCS or with CH alone", "value": "not evident"}, {"measurement": "elongation of hEOs and hPGCLC specification (NANOS3-tdTomato reporter)", "setting": "hPGCLCs; CH 0.25 μM, from D2 until D8, without exogenous BMP2/4", "value": "both the elongation of hEOs and the specification of hPGCLCs"}, {"measurement": "detection of hPGCLCs", "setting": "hPGCLCs; high concentration of CH (1.0 μM), D3 hEOs", "value": "No hPGCLCs were detected"}, {"measurement": "aggregates elongated along the longitudinal axis", "setting": "hEOs [4]; 0.25 μM CH, after two days, 1620/1800, N=10 experiments", "value": "more than 90%"}, {"measurement": "self-organization of aggregates into 3D elongated structures", "setting": "hEOs [4]; CH 0.25 μM, 0.5 μM and 1.0 μM", "value": "sufficient to promote self-organization into 3D elongated structures"}]}
{"smiles": "c1ccc2c(-c3cnn4cc(-c5ccc(N6CCNCC6)cc5)cnc34)ccnc2c1", "note": "[LDN193189]", "values": [{"measurement": "effect of BMP inhibition on specification of hPGCLCs", "setting": "hPGCLCs; inhibitor present on D1, D2 or D3", "value": "affected the specification of hPGCLCs when present on D1 but not on D2 or D3"}]}
{"smiles": "NC(=O)c1ccc(-c2nc(-c3ccc4c(c3)OCO4)c(-c3ccccn3)[nH]2)cc1", "note": "[SB43, SB431542]", "values": [{"measurement": "haematopoiesis in niSTEMBRYOs", "setting": "niSTEMBRYOs [1]; SB43 from day 4 onwards (SB late)", "value": "promoted haematopoiesis"}, {"measurement": "red hemogenic phenotype", "setting": "niSTEMBRYOs [1]; SB from D1 (SB early)", "value": "no red hemogenic phenotype was observed"}, {"measurement": "niSTEMBRYOs developing visible red hemogenic zones", "setting": "niSTEMBRYOs [1]; SB in rotary cultures, from D14 onwards, N=196/1170, 5 experiments", "value": "~ 16%"}, {"measurement": "aggregate size", "setting": "niSTEMBRYOs [5]; after 14 days", "value": "quadrupling"}, {"measurement": "aggregate size", "setting": "niSTEMBRYOs [5]; after four days", "value": "doubling in size"}, {"measurement": "hEOs containing large internal red zones", "setting": "hEOs [6]; SB in rotary cultures, by day 15", "value": "~ 14%"}, {"measurement": "red inclusion phenotype", "setting": "hEOs [6]; SB included in the 4D static culture", "value": "entirely lost"}, {"measurement": "increase in the frequency of elongated hEOs", "setting": "hEOs [2]; SB in the initial four-day static cultures, D4, p=0.0016", "value": 15, "unit": "%"}, {"measurement": "niSTEMBRYOs with periodic and highly localised contractions", "setting": "niSTEMBRYOs [3]; D8, kinetic culture with SB", "value": "~ 72%"}, {"measurement": "appearance of contracting cardiomyocytes", "setting": "niSTEMBRYOs [3]; SB from D1 (SB early) vs SB from D4 (SB late)", "value": "not affected"}, {"measurement": "niSTEMBRYOs with periodic and highly localised contractions", "setting": "niSTEMBRYOs [3]; after 7 days, kinetic culture with SB", "value": "~ 10%"}, {"measurement": "hEOs with periodic and highly localised contractions", "setting": "hEOs [7]; D7, kinetic culture with SB", "value": "~ 10%"}, {"measurement": "hEOs with periodic and highly localised contractions", "setting": "hEOs [7]; D8, kinetic culture with SB", "value": "~70", "unit": "%"}, {"measurement": "decrease in the number of beating hEOs", "setting": "hEOs [7]; SB in static and kinetic cultures vs SB only during kinetic cultures, D8, p<0.0001", "value": 40, "unit": "%"}, {"measurement": "hindgut (SOX17, SOX2 tubular structure)", "setting": "niSTEMBRYOs [8]; SB from D1 (SB early)", "value": "appearance of hindgut"}, {"measurement": "expression of mesodermal marker TBXT", "setting": "niSTEMBRYOs [8]; SB from D1 (SB early), by D4", "value": "downregulated"}, {"measurement": "hindgut", "setting": "niSTEMBRYOs [8]; SB from D4 (SB late)", "value": "absent"}, {"measurement": "hEO size", "setting": "hEOs [9]; kinetic culture with 1 μM SB43, with or without 10% Matrigel, after four days", "value": "doubled in size"}, {"measurement": "hEO size relative to static culture on D4", "setting": "hEOs [9]; kinetic culture with SB, after 22 days", "value": "quadrupled in size"}]}
